pIC50: −log10 of the molar value. Structures can show the parent of a compound that is named as a salt.
Tested on: Hepatitis B Virus
Assay: HBV test system: HBV-DNA in the supernatant of transfected hepatoma cells (PEG precipitation, non-radioactive HBV DNA probe)
Type: cell-based
Details: HepG2.2.15, 50% inhibition of HBV-DNA concentration in supernatant, HEP G2.2.15 cells, read-out: IC₅₀
Excerpt: Der Nachweis wurde in mit Hepatitis B Virus DNA transfizierten Hepatomzellen (HEP G2.2.15) geführt. Die Ergebnisse der unten aufgeführten Beispiele wurden zu dem in der folgenden Literaturangabe [Sells, M.A.; Chen, M.L., Acs, G., Proc. Natl. Acad. Sci. USA S. 1005 - 1009, Vol. 84 (1987] beschriebenen HBV-Testsystem ermittelt:
Transfizierte Hepatomzellen (HEP G2.2.15) wurden mit verschiedenen Konzentrationen an der jeweiligen Verbindung inkubiert. Durch Behandlung der transfizierten Hepatomzellinie HEP G2.2.15 mit den erfindungsgemäßen Verbindungen konnte das […] der virusspezifischen HBV-DNA im Überstand sowie eine Reduktion des HBsAg Spiegels gezeigt werden. Es wurde weiter gefunden, daß die erfindungsgemäßen Verbindungen zu einer Reduktion der replikativen Intermediate der Hepatitisviren führen. Im Überstand der Zellkulturen wurde nach PEG Fällung der Gehalt an HBV-DNA bestimmt. Dies geschah unter Verwendung einer nicht radioaktiv markierten HBV genomischen DNA Probe [Pauly, P., 1982, Ph.D. Thesis, University of Göttingen, F.R.G.; Köchel et al., 1990, EMBL, Accession-Nr. X 51790]. Gleichzeitig erfolgte der Nachweis der Beeinflussung der HBsAg Bildung mittels eines kommerziell erhältlichen Elisa Tests. Die angegebenen IC₅₀-Werte beziehen sich auf die Substratkonzentrationen, die unter den oben aufgeführten Testbedingungen eine 50%ige Hemmung der HBV-DNA Konzentration im Überstand bewirken. Tabelle A
Gleichzeitig erfolgte die Bestimmung des möglicherweise vorhandenen cytotoxischen Einflusses der erfindungsgemäßen Verbindungen mittels Kristallviolettfärbung bzw. über den Einbau von radioaktiv markiertem Thymidin in die zelluläre DNA.

Row | Structure (SMILES) | pIC50
1 | CC1=COc2c(N3CCOCC3)c(F)cc3c(=O)c(C(=O)O)cn1c23 [Beispiel 16] | 5.30
2 | COC(=O)c1cn2c3c(c(N4CCNCC4)c(F)cc3c1=O)OC=C2C [Beispiel 33] | 6.30
3 | CN1CCN(c2c(F)cc3c(=O)c(C(=O)O)cn4c3c2OC(C(C)(C)C)=C4)CC1 [Beispiel 1, 2-tert-Butyl-9-fluor-10-(4-methyl-1-piperazinyl)-7-oxo-7H-pyrido[1,2,3-de][1,4]-benzoxacin-6-carbonsäure] | 7.00
4 | CCOC(=O)c1cn2c3c(c(N4CCC(N)C4)c(F)cc3c1=O)OC(c1ccc(OC)cc1)=C2 (centres unmarked) [Beispiel 38, 10-(3-Amino-1-pyrrolidinyl)-9-fluor-2-(4-methoxyphenyl)-7-oxo-7H-pyrido[1,2,3-de][1,4]benzoxacin-6-carbonsäureethylester-hydrochlorid] | 5.30
5 | CC1=COc2c(N3CCNCC3)c(F)cc3c(=O)c(C(=O)O)cn1c23 [Beispiel 39] | 7.00

Source: EP0563732A1, “7-oxo-7H-pyrido(1,2,3-de)(1,4)benzoxazinecarboxylic acids and esters and their use as antiviral agents” (BAYER AG, priority 1992, dated 1993)
